Measurements from ChEMBL document CHEMBL1123224, “Mechanism of action of the marine natural product stypoldione: evidence for reaction with sulfhydryl groups” (1986).

How the values were obtained:
Assay type in all cases: functional
[1] = species: Bos taurus; assay: Carboxymethylation of bovine brain tubulin pre-incubated with 86 mol compound per mol tubulin
[2] = species: Bos taurus; assay: Carboxymethylation of bovine brain tubulin pre-incubated with 69 mol compound per mol tubulin
[3] = species: Bos taurus; assay: Carboxymethylation of bovine brain tubulin pre-incubated with 8.6 mol compound per mol tubulin
[4] = species: Bos taurus; assay: Carboxymethylation of bovine brain tubulin pre-incubated with 0 mol compound per mol tubulin
[5] = species: Bos taurus; assay: Carboxymethylation of bovine brain tubulin pre-incubated with 34 mol compound per mol tubulin
[6] = species: Bos taurus; assay: Carboxymethylation of bovine brain tubulin pre-incubated with 17 mol compound per mol tubulin

Which results are given for `CC1=CC(=O)C(=O)C2=C1O[C@@]1(C2)[C@@H](C)CC[C@@H]2[C@@]3(C)CC[C@H](O)C(C)(C)C3CC[C@]21C` (stereo partly specified) [STYPOLDIONE]?
Ratio_[3H]:tubulin [1]: 4.3; Ratio_[3H]:tubulin [2]: 4.8; Ratio_[3H]:tubulin [3]: 22; Ratio_[3H]:tubulin [4]: 20; Ratio_[3H]:tubulin [5]: 12; Ratio_[3H]:tubulin [6]: 16
